Test results published in patent US9822414B2, “In vitro method for predicting in vivo genotoxicity of chemical compounds” (priority 2011, dated 2017).
Several values for one entry are separate records, joined by “and”; a condition that tells them apart may be missing. Equal entries are not always repeated. Where two headings read alike, the source gives them in different places.

Assays:
[1] = test system: conventional in vitro genotoxicity assays; settings: cited from earlier work
[2] = test system: C10orf65/HOGA1; experiment: Gene expression of C10orf65/HOGA1 in HepG2 cells exposed to compound (microarray, log2 treatment:control ratio); type: cell-based, human; settings: for Log2 treatment: control ratio C10orf65/HOGA1: 24 h exposure, Ames negative compounds, one line per replicate of triplicate experiments; for C10orf65/HOGA1: expression versus reference value, single measurement of three
[3] = test system: SLC40A1; experiment: Gene expression of SLC40A1 in HepG2 cells exposed to compound (microarray, log2 treatment:control ratio); type: cell-based, human; settings: HepG2 cells; for Log2 treatment: control ratio SLC40A1: 24 h exposure, Ames negative compounds, one line per replicate of triplicate experiments; for SLC40A1: expression versus reference value, single measurement of three
[4] = test system: PNMA6A; experiment: Gene expression of PNMA6A in HepG2 cells exposed to compound (microarray, log2 treatment:control ratio); type: cell-based, human; settings: HepG2 cells; for Log2 treatment: control ratio PNMA6A: 24 h exposure, Ames negative compounds, one line per replicate of triplicate experiments; for PNMA6A: expression versus reference value, single measurement of three
[5] = test system: Salmonella typhimurium; settings: cited from earlier work
[6] = test system: rodents; settings: cited from earlier work
[7] = test system: HepG2 cell; experiment: Class prediction of in vivo genotoxicity by the method of the invention (Ames stratification plus three-gene expression in HepG2); settings: 62 compounds, three replicates, HepG2 24 h
[8] = test system: HepG2 cell
[9] = standard in vivo genotoxicity designation

Structure (SMILES) | In vitro GTX [1] | Log2 treatment: control ratio C10orf65/HOGA1 [2] | C10orf65/HOGA1 [2] | Log2 treatment: control ratio SLC40A1 [3] | SLC40A1 [3] | Log2 treatment: control ratio PNMA6A [4] | Ames [5] | Prediction (class prediction results using the method of the invention) [7] | At least ⅔ genes +? [8] | Average result over three measurements [8] | Prediction (class prediction results using the method of the invention) [8] | PNMA6A [4] | In vivo GTX ([6]; in vivo) | Standard ([6]; in vivo) | Ames ([5]; Ames results based on NTP data) | also measured
CC1=CC(=O)[N-]S(=O)(=O)O1.[K+] [ASK] | − | 0.014 and −0.015 and 0.083 | − (below the reference value) | −0.348 and −0.221 and 0.08 | − (below the reference value) | 0.264 and 0.161 and −0.677 | − | NGTX |  |  |  |  |  |  |  | Standard [6, 9]: NGTX
Nc1ccccc1C(=O)O [AnAc] | + |  | − (below the reference value) |  | − (below the reference value) |  | − | NGTX |  |  |  |  |  |  |  | Log2 treatment: control ratio C10orf65/HOGA1 ([2]; listed as AA): −0.045 and −0.061 and 0.002; Log2 treatment: control ratio SLC40A1 ([3]; listed as AA): −0.174 and −0.49 and 0.007; Log2 treatment: control ratio PNMA6A ([4]; listed as AA): 0.167 and −0.628 and 0.562; Standard [6, 9]: NGTX
ClC(Cl)Br [BDCM] | + | 0.113 and 0.258 and 0.086 |  | −0.891 and −0.178 and −0.017 | − (below the reference value) | 0.22 and −0.289 and −0.185 | − |  | NGTX | NGTX | NGTX | − (below the reference value) | − | NGTX |  | 
O=C1CCCCCN1 [CAP] | − | 0.203 and 0.223 and 0.138 |  | −0.607 and −0.032 and 0.265 | − (below the reference value) | 0.312 and −0.168 and −0.165 |  |  |  | NGTX | NGTX+ |  | − | NGTX | − | 
ClC(Cl)(Cl)Cl [CCl4] | + | 0.361 and 0.073 and −0.083 |  | −0.888 and −0.041 and −0.185 |  | 0.412 and −0.425 and −0.14 | − |  |  |  | NGTX+ |  | − |  |  | 
O=c1ccc2ccccc2o1 [Cou] | − | −0.481 and −0.483 | − (below the reference value) | −0.215 and −0.309 | − (below the reference value) | 0.073 and 0.081 |  |  | NGTX | NGTX | NGTX | − (below the reference value) | − | NGTX | − | Log2 treatment: control ratio C10orf65/HOGA1 ([2]; listed as COU): −0.069; Log2 treatment: control ratio SLC40A1 ([3]; listed as COU): −0.104; Log2 treatment: control ratio PNMA6A ([4]; listed as COU): 0.14
COc1cc(/C=C/C(=O)CC(=O)/C=C/c2ccc(O)c(OC)c2)ccc1O [Cur] | + | 0.113 and 0.028 and −0.293 | − (below the reference value) | 0.174 and 0.252 and 0.253 | − (below the reference value) | −0.138 and −0.135 and 0.263 |  |  | NGTX | NGTX | NGTX |  | − | NGTX | − | 
Clc1ccc(C(c2ccc(Cl)cc2)C(Cl)(Cl)Cl)cc1 [DDT] | − | −0.925 and 0.469 and −0.025 |  | 0.685 and 0.118 and 0.493 |  | −0.223 and 0.118 and −0.515 | − | NGTX |  |  |  | − (below the reference value) |  |  |  | Standard [6, 9]: NGTX
CCCCC(CC)COC(=O)c1ccccc1C(=O)OCC(CC)CCCC (centres unmarked) [DEHP] | − |  | − (below the reference value) |  | − (below the reference value) |  | − |  | NGTX | NGTX | NGTX | − (below the reference value) |  | NGTX |  | Log2 treatment: control ratio SLC40A1 ([3]; listed as DEPH): 0.249 and −0.387 and 0.234; Log2 treatment: control ratio PNMA6A ([4]; listed as DEPH): −0.264 and −0.841 and −0.034
CC/C(=C(/CC)c1ccc(O)cc1)c1ccc(O)cc1 [DES] | + | 0.146 and 0.516 and 0.206 | + (above the reference value) | 1.504 and 0.717 and 0.723 | + (above the reference value) | 0.286 and 0.203 and 0.135 |  |  | GTX | GTX | GTX |  | + | GTX | − | 
CCOP(=S)(OCC)Oc1cc(C)nc(C(C)C)n1 [DZN] | − | −1.12 and −0.738 and −1.077 | − (below the reference value) | 0.569 and 0.773 and 1.44 | + (above the reference value) | −0.352 and −0.624 and −0.03 | − | NGTX |  |  |  | − (below the reference value) |  |  |  | Standard [6, 9]: NGTX
OC[C@@H](O)[C@@H](O)[C@H](O)[C@H](O)CO [Dman] | − | 0.022 and −0.159 and 0.023 | − (below the reference value) | 0.005 and −0.155 and −0.035 | − (below the reference value) | −0.035 and 0.459 and 0.01 | − | NGTX |  |  |  |  |  |  |  | Standard [6, 9]: NGTX
C[C@]12CC[C@@H]3c4ccc(O)cc4CC[C@H]3[C@@H]1CC[C@@H]2O [E2, Estradiol] |  |  |  |  | − (below the reference value) |  |  | NGTX |  |  |  | − (below the reference value) |  |  |  | 
C=CCc1ccc(O)c(OC)c1 [EuG] | + | −0.156 and 0.3 and −0.066 |  | 0.161 and 0.712 and 0.293 |  | 0.39 and 0.124 and 0.031 |  |  |  | NGTX | NGTX+ |  | − | NGTX | − | 
COC(=O)[C@H]1[C@H]2C[C@@H]3c4[nH]c5cc(OC)ccc5c4CCN3C[C@H]2C[C@@H](OC(=O)c2cc(OC)c(OC)c(OC)c2)[C@@H]1OC [Res] | − | 0.047 and 6.45E−05 and −0.043 | − (below the reference value) | 0.398 and −0.212 and −0.057 |  | 0.09 and −0.624 and 0.288 |  |  | NGTX | NGTX | NGTX |  | − | NGTX | − | 
CCNc1nc(Cl)nc(NCC)n1 [Sim] | − | 0.22 and 0.14 and 0.155 |  | −0.601 and −0.1 and −0.245 | − (below the reference value) | 0.246 and 0.186 and 0.202 |  |  | NGTX | NGTX | NGTX | − (below the reference value) | − | NGTX | − | Classification of NGTX compounds by the method of the invention (false positives) [8]: misclassification
Cc1cccc(Nc2cc(Cl)nc(SCC(=O)O)n2)c1C [WY] | − | −0.061 and −0.158 and −0.053 | − (below the reference value) | −0.312 and −0.393 and −0.643 | − (below the reference value) | 0.059 and −0.515 and 1.157 |  |  | NGTX | NGTX | NGTX |  | − | NGTX | − | 
